# Test results: publication PMC9181188 (International Journal of Molecular Sciences, 2022)
# Like-named read-outs stand apart in the source and are kept apart here.
# How the values were obtained:
# S. aureus ATCC 29213 = assay: MIC, twofold microdilution, standard strain; type: cell-based; settings: Staphylococcus aureus, ATCC29213; 18 h of treatment; read-out: MIC S. aureus ATCC 29213
# [1] = tested on: S. epidermidis ATCC 12228; assay: MIC, twofold microdilution, standard strain; type: cell-based; settings: Staphylococcus epidermidis, ATCC12228; 18 h of treatment; read-out: MIC S. epidermidis ATCC 12228
# HaCaT cells = assay: MTT assay, HaCaT normal cells; type: cell-based; settings: human immortal keratinocyte cell line, 72 h, mean ± SD
# SW620 cells = assay: MTT assay, SW620; type: cell-based, human
# PC3 cells = assay: MTT assay, PC3; type: cell-based, human
# [2] = tested on: S. epidermidis KR 4358/2 840/19; assay: MIC, clinical S. epidermidis strain; type: cell-based; settings: Staphylococcus epidermidis, KR4358/2840/19; clinical S. epidermidis, quinolone-susceptible, 18 h of treatment; read-out: MIC KR 4358/2 840/19
# [3] = tested on: S. epidermidis KR 4243 829/19; assay: MIC, clinical S. epidermidis strain; type: cell-based; settings: Staphylococcus epidermidis, KR4243829/19, quinolone-susceptible, 18 h of treatment
# [4] = tested on: M. tuberculosis Spec. 192 (Sensitive to Tuberculostatics); assay: MABA (microplate Alamar blue assay) MIC; type: cell-based; settings: Mycobacterium tuberculosis, 336 h, read-out: MIC M. tuberculosis Spec. 192 (Sensitive to Tuberculostatics)
# [5] = tested on: S. epidermidis T 5501 851/19; assay: MIC, clinical S. epidermidis strain; type: cell-based; settings: Staphylococcus epidermidis, T5501851/19, read-out: MIC T 5501 851/19, quinolone-susceptible, 18 h of treatment
# M. tuberculosis H37Rv = assay: MABA (microplate Alamar blue assay) MIC; type: cell-based; settings: Mycobacterium tuberculosis, 336 h, read-out: MIC M. tuberculosis H37Rv
# [6] = tested on: S. epidermidis KR 4047 825/19; assay: MIC, clinical S. epidermidis strain; type: cell-based; settings: Staphylococcus epidermidis, KR4047825/19, quinolone-resistant, 18 h of treatment
# E. coli ATCC 25922 = assay: MIC, twofold microdilution, standard strain; type: cell-based, Escherichia coli; settings: Escherichia coli, ATCC25922; 18 h of treatment; read-out: MIC E. coli ATCC 25922
# [7] = tested on: standard staphylococci (S. aureus, S. epidermidis); assay: MIC, standard Gram-positive strains as a group; type: cell-based; settings: Staphylococcus aureus; range over standard Gram-positive strains; read-out: MIC against standard staphylococci
# [8] = tested on: S. epidermidis T 5253 845/19; assay: MIC, clinical S. epidermidis strain; type: cell-based; settings: Staphylococcus epidermidis, T5253845/19, quinolone-resistant, 18 h of treatment
# P. aeruginosa ATCC 27853 = assay: MIC, twofold microdilution, standard strain; type: cell-based; settings: Pseudomonas aeruginosa, ATCC27853, 18 h, read-out: MIC P. aeruginosa ATCC 27853
# [9] = tested on: S. epidermidis KR 4313 834/19; assay: MIC, clinical S. epidermidis strain; type: cell-based; settings: Staphylococcus epidermidis, KR4313834/19, quinolone-susceptible, 18 h of treatment
# S. aureus ATCC 25923 = assay: MIC, twofold microdilution, standard strain; type: cell-based; settings: Staphylococcus aureus, ATCC25923; 18 h of treatment; read-out: MIC S. aureus ATCC 25923
# [10] = tested on: S. epidermidis T 5399 848/19; assay: MIC, clinical S. epidermidis strain; type: cell-based; settings: Staphylococcus epidermidis, T5399848/19, quinolone-susceptible, 18 h of treatment
# SW480 cells = assay: MTT assay, SW480; type: cell-based, human; settings: for IC50: Homo sapiens, SW480, 72 h, human primary colon cancer, 72 h, MTT, mean ± SD
# [11] = tested on: S. epidermidis ATCC 35984; assay: MIC, twofold microdilution, standard strain; type: cell-based; settings: Staphylococcus epidermidis, ATCC35984; 18 h of treatment; read-out: MIC S. epidermidis ATCC 35984
# S. aureus NCTC 4163 = assay: MIC, twofold microdilution, standard strain; type: cell-based; settings: Staphylococcus aureus, NCTC4163; 18 h of treatment; read-out: MIC S. aureus NCTC 4163
# S. aureus ATCC 6538 = assay: MIC, twofold microdilution, standard strain; type: cell-based; settings: Staphylococcus aureus, ATCC6538; 18 h of treatment; read-out: MIC S. aureus ATCC 6538
# [12] = biological target: T1, S. aureus topoisomerase IV (Staphylococcus aureus, UniProt P0C1S7+P0C1U9); assay: S. aureus topoisomerase IV decatenation assay; type: biochemical
# T1 construct: purchased Inspiralis
# Method: The assay was performed using S. aureus topoisomerase IV […] kit (Inspiralis). Kinetoplast DNA (kDNA) was the substrate for topoisomerase IV.
# S. aureus DNA gyrase = S. aureus DNA gyrase (Staphylococcus aureus, UniProt P0A0K8+P20831); assay: biochemical
# Method: The assay was performed using S. aureus DNA Gyrase Supercoiling kit (Inspiralis). […] Samples were vortexed, centrifuged, and 20 µL of the aqueous phase of each sample was loaded onto a 1% agarose gel and left for 30 min prior to electrophoresis to allow diffusion of salt. Electrophoresis was conducted in TAE buffer for 3 h at 50 V. Gels were stained with ethidium bromide and visualized under UV light in a transilluminator (ChemiDoc MP, Bio Rad, Warsaw, Poland).
# [13] = SI = IC50 for normal cell line (HaCaT)/IC50 cancer cell line
# T1 sequence (P0C1U9 whole entry): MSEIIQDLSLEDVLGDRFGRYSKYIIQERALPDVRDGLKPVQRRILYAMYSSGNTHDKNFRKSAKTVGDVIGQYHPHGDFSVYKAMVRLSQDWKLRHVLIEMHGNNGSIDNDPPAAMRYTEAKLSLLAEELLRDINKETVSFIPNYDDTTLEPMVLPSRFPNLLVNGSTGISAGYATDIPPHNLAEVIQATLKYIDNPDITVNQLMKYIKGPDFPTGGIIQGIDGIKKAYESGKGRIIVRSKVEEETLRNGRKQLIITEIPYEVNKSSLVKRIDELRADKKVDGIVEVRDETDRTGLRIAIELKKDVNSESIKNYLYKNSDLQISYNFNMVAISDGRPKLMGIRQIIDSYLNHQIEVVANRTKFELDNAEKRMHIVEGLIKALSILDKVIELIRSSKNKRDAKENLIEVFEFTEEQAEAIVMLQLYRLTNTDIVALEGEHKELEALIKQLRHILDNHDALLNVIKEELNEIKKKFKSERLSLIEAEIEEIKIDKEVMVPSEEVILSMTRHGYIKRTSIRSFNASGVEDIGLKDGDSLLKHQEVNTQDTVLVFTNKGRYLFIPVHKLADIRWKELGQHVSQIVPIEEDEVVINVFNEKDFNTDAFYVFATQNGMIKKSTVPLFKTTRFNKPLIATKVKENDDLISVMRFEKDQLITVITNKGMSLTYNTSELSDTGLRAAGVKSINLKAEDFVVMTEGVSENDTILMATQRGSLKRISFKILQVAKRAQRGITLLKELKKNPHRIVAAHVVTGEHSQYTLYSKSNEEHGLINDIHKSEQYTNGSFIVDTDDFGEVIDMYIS
# T1 sequence (P0C1S7 whole entry): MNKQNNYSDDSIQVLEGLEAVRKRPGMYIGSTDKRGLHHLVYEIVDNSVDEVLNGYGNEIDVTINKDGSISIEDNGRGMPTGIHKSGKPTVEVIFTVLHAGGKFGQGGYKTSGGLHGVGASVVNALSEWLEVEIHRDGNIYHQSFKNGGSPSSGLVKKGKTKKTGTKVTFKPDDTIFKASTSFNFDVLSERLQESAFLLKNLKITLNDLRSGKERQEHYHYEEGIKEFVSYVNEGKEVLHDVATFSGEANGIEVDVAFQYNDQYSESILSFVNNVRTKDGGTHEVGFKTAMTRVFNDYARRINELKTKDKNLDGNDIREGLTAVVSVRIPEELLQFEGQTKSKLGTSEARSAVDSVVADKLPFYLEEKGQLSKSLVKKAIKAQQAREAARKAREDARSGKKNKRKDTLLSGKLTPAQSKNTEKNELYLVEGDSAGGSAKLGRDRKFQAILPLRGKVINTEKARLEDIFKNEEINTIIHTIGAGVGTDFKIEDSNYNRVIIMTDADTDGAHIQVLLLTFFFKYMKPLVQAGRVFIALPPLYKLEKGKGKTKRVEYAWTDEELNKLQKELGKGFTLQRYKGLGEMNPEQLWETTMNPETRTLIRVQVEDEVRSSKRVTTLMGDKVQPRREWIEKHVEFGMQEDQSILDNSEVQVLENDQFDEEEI
# Sequence of S. aureus DNA gyrase (P20831 whole entry): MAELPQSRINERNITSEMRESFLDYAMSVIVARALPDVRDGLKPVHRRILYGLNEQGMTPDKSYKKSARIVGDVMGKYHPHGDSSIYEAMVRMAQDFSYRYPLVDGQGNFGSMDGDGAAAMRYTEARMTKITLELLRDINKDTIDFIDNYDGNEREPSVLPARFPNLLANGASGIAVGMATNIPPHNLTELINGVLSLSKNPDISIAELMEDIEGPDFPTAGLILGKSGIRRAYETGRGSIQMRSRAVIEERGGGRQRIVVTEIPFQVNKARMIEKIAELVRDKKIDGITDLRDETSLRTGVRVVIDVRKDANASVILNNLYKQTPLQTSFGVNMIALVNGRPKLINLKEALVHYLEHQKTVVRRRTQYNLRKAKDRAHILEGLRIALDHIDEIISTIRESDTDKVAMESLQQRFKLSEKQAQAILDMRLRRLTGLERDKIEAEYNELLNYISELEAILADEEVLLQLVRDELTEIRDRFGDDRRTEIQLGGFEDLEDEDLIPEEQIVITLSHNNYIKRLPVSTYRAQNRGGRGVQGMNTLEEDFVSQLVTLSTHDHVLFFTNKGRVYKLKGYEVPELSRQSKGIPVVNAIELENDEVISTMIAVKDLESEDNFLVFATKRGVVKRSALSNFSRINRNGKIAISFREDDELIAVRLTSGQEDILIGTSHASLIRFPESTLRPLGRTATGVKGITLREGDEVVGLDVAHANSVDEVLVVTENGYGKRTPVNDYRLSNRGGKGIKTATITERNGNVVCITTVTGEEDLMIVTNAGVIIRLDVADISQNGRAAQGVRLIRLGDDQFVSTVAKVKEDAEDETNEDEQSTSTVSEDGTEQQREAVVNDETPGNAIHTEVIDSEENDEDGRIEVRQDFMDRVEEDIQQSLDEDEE
# Sequence of S. aureus DNA gyrase (P0A0K8 whole entry): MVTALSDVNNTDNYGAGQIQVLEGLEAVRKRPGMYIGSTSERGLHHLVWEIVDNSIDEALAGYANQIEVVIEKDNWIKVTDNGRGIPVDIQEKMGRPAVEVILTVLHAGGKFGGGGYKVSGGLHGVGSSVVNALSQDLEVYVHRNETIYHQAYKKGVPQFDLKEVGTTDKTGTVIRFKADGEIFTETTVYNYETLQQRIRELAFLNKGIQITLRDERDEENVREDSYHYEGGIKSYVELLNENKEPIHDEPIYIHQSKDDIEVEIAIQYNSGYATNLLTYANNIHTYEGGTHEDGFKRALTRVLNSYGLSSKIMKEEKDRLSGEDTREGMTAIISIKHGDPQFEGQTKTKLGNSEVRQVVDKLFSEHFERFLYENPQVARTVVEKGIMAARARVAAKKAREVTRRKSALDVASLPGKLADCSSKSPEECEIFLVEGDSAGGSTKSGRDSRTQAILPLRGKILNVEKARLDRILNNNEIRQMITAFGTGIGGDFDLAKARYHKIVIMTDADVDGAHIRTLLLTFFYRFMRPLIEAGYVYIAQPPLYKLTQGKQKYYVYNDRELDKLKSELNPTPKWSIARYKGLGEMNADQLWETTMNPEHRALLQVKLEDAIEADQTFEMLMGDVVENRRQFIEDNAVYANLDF
compound,measurement,setting,value
"CCCCCCCC/C=C\CCCCCCCCCCCC(=O)N1CCCC2CN(c3c(F)cc4c(=O)c(C(=O)O)cn(C5CC5)c4c3OC)CC21 (centres unmarked) [Compound 7m, 1-Cyclopropyl-7-{1-(Z)-docos-13-enoyl-octahydro-pyrrolo[3,4-b]pyridin-6-yl}-6-fluoro-8-methoxy-4-oxo-1,4-dihydro-quinoline-3-carboxylic acid]",MIC,S. aureus ATCC 29213,512 µg/mL
same,MIC,[1],512 µg/mL
same,IC50,HaCaT cells,85.2 ± 3.3 µM
same,IC50,"SW620 cells; Homo sapiens, SW-620, 72 h, human metastatic colon cancer, 72 h, MTT, mean ± SD",51.8 ± 4.3 µM
same,SI SW620,SW620 cells; [13],1.6
same,IC50,"PC3 cells; Homo sapiens, PC-3, 72 h, human metastatic prostate cancer, 72 h, MTT, mean ± SD",36.5 ± 2.3 µM
same,SI PC3,PC3 cells; [13],2.3
same,MIC,[2],256 µg/mL
same,MIC,[3],256 µg/mL
same,MIC,[4],> 512 µg/mL
same,MIC,[5],256 µg/mL
same,MIC,M. tuberculosis H37Rv,> 512 µg/mL
same,MIC,[6],512 µg/mL
same,MIC,E. coli ATCC 25922,256 µg/mL
same,MIC,[7],> 32 µg/mL
same,MIC,[8],> 512 µg/mL
same,MIC,P. aeruginosa ATCC 27853,> 512 µg/mL
same,MIC,[9],256 µg/mL
same,MIC,S. aureus ATCC 25923,512 µg/mL
same,MIC,[10],512 µg/mL
same,IC50,SW480 cells,48.6 ± 2.6 µM
same,SI SW480,SW480 cells; [13],1.8
same,MIC,[11],256 µg/mL
same,MIC,S. aureus NCTC 4163,256 µg/mL
same,MIC,S. aureus ATCC 6538,128 µg/mL
"CO[C@H]1/C=C/O[C@@]2(C)Oc3c(C)c(O)c4c(O)c(c(/C=N/N5CCN(C)CC5)c(O)c4c3C2=O)NC(=O)/C(C)=C\C=C\[C@H](C)[C@H](O)[C@@H](C)[C@@H](O)[C@@H](C)[C@H](OC(C)=O)[C@@H]1C [Rifampicin (RMP), Rifampicin, reference compound]",MIC,[4]; 2 weeks of treatment,1 µg/mL
same,MIC,M. tuberculosis H37Rv; 2 weeks of treatment,1 µg/mL
CC=CC=CC(=O)N1CCN(c2cc3c(cc2F)c(=O)c(C(=O)O)cn3C2CC2)CC1 [Compound 2],IC50,[12],75.2 µM
same,IC50,S. aureus DNA gyrase,79.9 µM
"CC[C@@H](CO)NCCN[C@@H](CC)CO [Ethambutol (EMB), Ethambutol, reference compound]",MIC,[4]; 2 weeks of treatment,2 µg/mL
same,MIC,M. tuberculosis H37Rv; 2 weeks of treatment,2 µg/mL
"COc1cccc2c1C(=O)c1c(O)c3c(c(O)c1C2=O)C[C@@](O)(C(=O)CO)C[C@@H]3O[C@H]1C[C@H](N)[C@H](O)[C@H](C)O1 [Doxorubicin, reference compound]",IC50,HaCaT cells,0.29 ± 0.1 µM
same,IC50,SW480 cells,0.75 ± 0.1 µM
CC=CC(=O)N1CCN(c2cc3c(cc2F)c(=O)c(C(=O)O)cn3C2CC2)CC1 [Compound 1],IC50,[12],> 160 µM
same,IC50,S. aureus DNA gyrase,> 160 µM
